Drawing on US7405240B2, “Substituted cyclopentanes or cyclopentanones as therapeutic agents” (Allergan, Inc., priority 2006, dated 2008), this text covers EC50 and Ki for 13 molecules.

The target of assay [1] is T1, hEP2 (Homo sapiens, UniProt P43116). Briefly: cAMP assay, hEP2. It is filed as cell-based. On the technique in general: Changes in cAMP serve as a functional read-out for many G protein-coupled receptors.
The target in assay [2] is T1, hEP2. As to the kind of experiment: Competition binding, [3H]PGE2, human EP2 receptors. As to conditions: [3H]PGE2, HEK 293 cells stably expressing human EP2; read-out: hEP2 Ki. Further details: expressed in transfected cells; host or cells: HEK 293. As for the experimental part: Competition binding experiments were performed in a medium containing Hank's balanced salt solution, Hepes 20 mM, pH 7.3, membranes (˜60 μg protein) or 2×10^5 cells from HEK 293 cells stably expressing human EP2 receptors, [^3H]PGE2 (10 nM) and various concentrations of test compounds in a total volume of 300 μl. Reaction mixtures were incubated at 23° C. for 60 min, and were filtered over Whatman GF/B filters under vacuum. Filters were washed three times with 5 ml ice-cold buffer containing 50 mM Tris/HCl (pH 7.3). Non-specific binding was estimated in the presence of excess unlabeled PGE2 (10 μM). Binding data fitted to the binding model for a single class of binding sites, using nonlinear regression analysis. IC50 values thus obtained were converted to Ki using the equation of Ki=(IC50/(1+[L]/KD) where [L] represents PGE2 concentration (10 nM) and KD the dissociation constant for [^3H]PGE2 at human EP2 receptors (40 nM).
(§1) HEK-293 cells stably expressing the human or feline FP receptor, or EP1, EP2, or EP4 receptors were washed with TME buffer, scraped from the bottom of the flasks, and homogenized for 30 sec using a Brinkman PT 10/35 polytron. TME buffer was added to achieve a final 40 ml volume in the centrifuge tubes (the composition of TME is 100 mM TRIS base, 20 mM MgCl2, […]; 10N HCl is added to achieve a pH of 7.4).
(§2) The cell homogenate was centrifuged at 19000 r.p.m. for 20 min at 4° C. using a Beckman Ti-60 rotor. The resultant pellet was resuspended in TME buffer to give a final 1 mg/ml protein concentration, as determined by Biorad assay. Radioligand binding competition assays vs. [3H-] 17-phenyl PGF2, (5 nM) were performed in a 100 μl volume for 60 min. Binding reactions were started by adding plasma membrane fraction. The reaction was terminated by the addition of 4 ml ice-cold TRIS-HCl buffer and rapid filtration through glass fiber GF/B filters using a Brandel cell harvester. The filters were washed 3 times with ice-cold buffer and oven dried for one hour.
(§3) [^3H-] PGE2 (specific activity 180 Ci mmol) was used as the radioligand for EP receptors. [^3H] 17-phenyl PGF2, was employed for FP receptor binding studies. Binding studies employing EP1, EP2, EP4 and FP receptors were performed in duplicate in at least three separate experiments. A […] assay volume was used. Incubations were for 60 min at 25° C. and were terminated by the addition of 4 ml of ice-cold 50 mM TRIS-HCl, followed by rapid filtration through Whatman GF/B filters and three additional 4 ml washes in a cell harvester (Brandel). Competition studies were performed using a final concentration of 5 nM [^3H]-PGE2, or 5 nM [^3H] 17-phenyl PGF2, and non-specific binding determined with 10^−5M of unlabeled PGE2, or 17-phenyl PGF2α, according to receptor subtype studied.

In assay [3] the target is T2, hEP4 (Homo sapiens, UniProt P35408). As to the kind of experiment: Radioligand binding, EP4 receptor. Details: expressed in transfected cells; host or cells: HEK-293. To be noted: [3H]PGE2, HEK-293 cells expressing EP4. The method, then:
as §1, §2, §3

The target of assay [4] is T1, hEP2. Briefly: FLIPR calcium signal, hEP2. It counts as cell-based. Details: expressed in transfected cells; host or cells: HEK-293(EBNA). To be noted: HEK-293(EBNA) cells expressing hEP2/Gqs5. The method, then:
(§4) Methods for FLIPR™ Studies
(§5) HEK-293(EBNA) cells, stably expressing one type or subtype of recombinant human prostaglandin receptors (prostaglandin receptors expressed: hDP/Gqs5; hEP1; hEP2/Gqs5; hEP3A/Gqi5; hEP4/Gqs5; hFP; hIP; hTP), were cultured in 100 mm culture dishes in high-glucose DMEM medium containing 10% fetal bovine serum, 2 mM 1-glutamine, 250 μg/ml geneticin (G418) and 200 μg/ml hygromycin B as selection markers, and 100 units/ml penicillin G, 100 μg/ml streptomycin and 0.25 μg/ml amphotericin B.
(§6) Cells were seeded at a density of 5×10^4 cells per well in Biocoat® Poly-D-lysine-coated black-wall, clear-bottom 96-well plates (Becton-Dickinson) and allowed to attach overnight in an incubator at 37° C. Cells were then washed two times with HBSS-HEPES buffer (Hanks Balanced Salt Solution without bicarbonate and phenol red, 20 mM HEPES, pH 7.4) using a Denley Cellwash plate washer (Labsystems). After 45 minutes of dye-loading in the dark, using the calcium-sensitive dye Fluo-4 AM at a final concentration of 2 μM, plates were washed four times with HBSS-HEPES buffer to remove excess dye leaving 100 μl in each well. Plates were re-equilibrated to 37° C. for a few minutes.
(§7) Cells were excited with an Argon laser at 488 nm, and emission was measured through a 510-570 nm bandwidth emission filter (FLIPR™, Molecular Devices, Sunnyvale, Calif.). Drug solution was added in a 50 μl volume to each well to give the desired final concentration. The peak increase in fluorescence intensity was recorded for each well. On each plate, four wells each served as negative (HBSS-HEPES buffer) and positive controls (standard agonists: BW245C (hDP); PGE2 (hEP1; hEP2/Gqs5; hEP3A/Gqi5; hEP4/Gqs5); PGF2α (hFP); carbacyclin (hIP); U-46619 (hTP), depending on receptor). The peak fluorescence change in each drug-containing well was then expressed relative to the controls.
(§8) Compounds were tested in a high-throughput (HTS) or concentration-response (CoRe) format. In the HTS format, forty-four compounds per plate were examined in duplicates at a concentration of 10^−5 M. To generate concentration-response curves, four compounds per plate were tested in duplicates in a concentration range between 10^−5 and 10^−11 M. The duplicate values were averaged. In either, HTS or CoRe format each compound was tested on at least 3 separate plates using cells from different passages to give an n≧3.

The target in assay [5] is T2, hEP4. As to the kind of experiment: FLIPR calcium signal, hEP4. It counts as cell-based. Further details: expressed in transfected cells; host or cells: HEK-293(EBNA). As to conditions: HEK-293(EBNA) cells expressing hEP4/Gqs5. As for the experimental part: as §4, §5, §6, §7, §8

As usually defined, the EC50 is the concentration giving half of the maximal effect. As usually defined, the Ki is the dissociation constant of the complex between target and ligand, obtained from inhibition or displacement.

T2 sequence (P35408 whole entry): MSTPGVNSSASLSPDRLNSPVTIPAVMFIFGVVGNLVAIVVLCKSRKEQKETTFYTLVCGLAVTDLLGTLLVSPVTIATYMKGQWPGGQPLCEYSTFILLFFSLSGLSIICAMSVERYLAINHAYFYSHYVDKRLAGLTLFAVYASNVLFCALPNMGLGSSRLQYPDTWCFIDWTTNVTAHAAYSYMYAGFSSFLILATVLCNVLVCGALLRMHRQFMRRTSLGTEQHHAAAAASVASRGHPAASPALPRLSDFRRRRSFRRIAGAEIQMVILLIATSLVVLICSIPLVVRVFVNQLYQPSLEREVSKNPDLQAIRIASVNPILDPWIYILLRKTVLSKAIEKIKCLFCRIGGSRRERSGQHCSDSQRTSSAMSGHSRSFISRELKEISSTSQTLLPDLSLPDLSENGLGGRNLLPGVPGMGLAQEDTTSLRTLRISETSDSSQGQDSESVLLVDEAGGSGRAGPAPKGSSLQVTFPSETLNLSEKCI
T1 sequence (P43116 whole entry): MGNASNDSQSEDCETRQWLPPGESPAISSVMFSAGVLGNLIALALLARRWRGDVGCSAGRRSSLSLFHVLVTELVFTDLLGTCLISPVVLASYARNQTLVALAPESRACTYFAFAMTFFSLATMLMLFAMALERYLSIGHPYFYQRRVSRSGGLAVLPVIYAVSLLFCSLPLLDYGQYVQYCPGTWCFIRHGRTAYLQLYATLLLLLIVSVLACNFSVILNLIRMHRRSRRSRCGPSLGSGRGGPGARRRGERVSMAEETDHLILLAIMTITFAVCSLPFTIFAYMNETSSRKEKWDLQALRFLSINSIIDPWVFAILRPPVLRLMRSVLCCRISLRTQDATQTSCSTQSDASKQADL

For the molecule `O=C(O)CCCCCC[C@@H]1[C@@H](COc2cc(C(F)(F)F)cc(C(F)(F)F)c2)[C@H](O)C[C@H]1Cl` [Example 16, (Z)-7-[(1R,2S,3R,5R)-2-(3,5-Bis-trifluoromethyl-phenoxymethyl)-5-chloro-3-hydroxy-cyclopentyl]-heptanoic acid], the figures for the 50% effective concentration (EC50) at hEP2 [1], on hEP2 [4] and at hEP4 [5] were 40 nM, 100 nM and 13.1 µM, respectively. Moreover, the inhibitory constant (Ki) is 45 nM on hEP2 [2] and 4.11 µM at hEP4 [3].
Taken in the same sequence, the figures for `O=C(O)CCC/C=C\C[C@@H]1[C@@H](COc2ccc3ccccc3c2)[C@H](O)C[C@H]1Cl` [Example 17, (Z)-7-[(1R,2S,3R,5R)-5-Chloro-3-hydroxy-2-(naphthalen-2-yloxymethyl)-cyclopentyl]-hept-5-enoic acid] were 27 nM, 301 nM, 3.42 µM, 61 nM and 0.507 µM.
Taken in the same sequence, the figures for `O=C(O)CCCCCC[C@@H]1[C@@H](COc2ccc3ccccc3c2)[C@H](O)C[C@H]1Cl` [Example 18, (Z)-7-[(1R,2S,3R,5R)-5-Chloro-3-hydroxy-2-(naphthalen-2-yloxymethyl)-cyclopentyl]-heptanoic acid] were 65 nM, 453 nM, 6.31 µM, 89 nM and 0.973 µM.
For `O=C(O)CCCCCC[C@@H]1[C@@H](COc2cccc3ccccc23)[C@H](O)C[C@H]1Cl` [Example 20, (Z)-7-[(1R,2S,3R,5R)-5-Chloro-3-hydroxy-2-(naphthalen-1-yloxymethyl)-cyclopentyl]-heptanoic acid], in that order: 28 nM, 82 nM, 2.74 µM, 163 nM and 0.351 µM.
On to `O=C(O)CCC/C=C\C[C@@H]1[C@@H](COc2ccccc2Cl)[C@H](O)C[C@H]1Cl` [Example 21, (Z)-7-[(1R,2S,3R,5R)-5-Chloro-2-(2-chloro-phenoxymethyl)-3-hydroxy-cyclopentyl]-hept-5-enoic acid], for which the EC50 at hEP2 [1] is 37 nM; at hEP2 [4], 26 nM; on hEP4 [5] it was 0.449 µM. Further, the Ki on hEP2 [2] stood at 303 nM; on hEP4 [3], 5.01 µM.
Taken in the same sequence, the figures for `O=C(O)CCC/C=C\C[C@@H]1[C@@H](COc2cccc(Cl)c2)[C@H](O)C[C@H]1Cl` [Example 22, (Z)-7-[(1R,2S,3R,5R)-5-Chloro-2-(3-chloro-phenoxymethyl)-3-hydroxy-cyclopentyl]-hept-5-enoic acid] were 5 nM, 18 nM, 0.823 µM, 43 nM and more than 10 µM.
With `O=C(O)CCC/C=C\C[C@@H]1[C@@H](COc2ccc(Cl)cc2)[C@H](O)C[C@H]1Cl` [Example 23, (Z)-7-[(1R,2S,3R,5R)-5-Chloro-2-(4-chloro-phenoxymethyl)-3-hydroxy-cyclopentyl]-hept-5-enoic acid], the EC50 on hEP2 [1] turned out to be 10 nM; at hEP2 [4] it was 45 nM; on hEP4 [5] it was 2.86 µM. Besides, the Ki at hEP2 [2] worked out at 32 nM; at hEP4 [3] it was 3.22 µM.
Consider `Cc1ccc(OC[C@@H]2[C@@H](C/C=C\CCCC(=O)O)[C@H](Cl)C[C@H]2O)c(C)c1` [Example 33, (Z)-7-[(1R,2S,3R,5R)-5-Chloro-2-(2,4-dimethyl-phenoxymethyl)-3-hydroxy-cyclopentyl]-hept-5-enoic acid], for which the EC50 was determined as 72 nM on hEP2 [1], 277 nM at hEP2 [4] and 7.25 µM at hEP4 [5]. Also, the Ki on hEP2 [2] was 620 nM.
Turning to `O=C(O)CCC/C=C\C[C@@H]1[C@@H](COc2cccc3c2CCC3=O)[C@H](O)C[C@H]1Cl` [Example 58, (Z)-7-[(1R,2S,3R,5R)-5-Chloro-3-hydroxy-2-(1-oxo-indan-4-yloxymethyl)-cyclopentyl]-hept-5-enoic acid], the EC50 at hEP2 [1] turned out to be 6.5 nM; at hEP2 [4], 51 nM. The values for the Ki at hEP2 [2] and on hEP4 [3] were 129 nM and 2.83 µM, respectively.
Taken in the same sequence, the figures for `O=C(O)CCC/C=C\C[C@@H]1[C@@H](COc2cccc3c2CCC3O)[C@H](O)C[C@H]1Cl` (stereo partly drawn) [Example 59, (Z)-7-[(1R,2S,3R,5R)-5-Chloro-3-hydroxy-2-(1-hydroxy-indan-4-yloxymethyl)-cyclopentyl]-hept-5-enoic acid] were 1.2 nM, 108 nM, 139 nM and 3 µM.
In the case of `O=C(O)CCC/C=C\C[C@@H]1[C@@H](COc2ccccc2CCO)[C@H](O)C[C@H]1Cl` [Example 61, (Z)-7-{(1R,2S,3R,5R)-5-Chloro-3-hydroxy-2-[2-(2-hydroxy-ethyl)-phenoxymethyl]-cyclopentyl}-hept-5-enoic acid], the results for the concentration giving a half-maximal response (EC50) on hEP2 [1], at hEP2 [4] and on hEP4 [5] were 128 nM, 5980 nM and more than 10 µM, respectively. In addition, the Ki at hEP2 [2] came out at 3910 nM.
Taken in the same sequence, the figures for `O=C(O)CCC/C=C\C[C@@H]1[C@@H](COc2cccc(CCO)c2)[C@H](O)C[C@H]1Cl` [Example 62, (Z)-7-{(1R,2S,3R,5R)-5-Chloro-3-hydroxy-2-[3-(2-hydroxy-ethyl)-phenoxymethyl]-cyclopentyl}-hept-5-enoic acid] were 18 nM, 1970 nM, more than 10 µM and 161 nM.
For `O=C(O)CCC/C=C\C[C@@H]1[C@@H](COc2ccc(CCO)cc2)[C@H](O)C[C@H]1Cl` [Example 63, (Z)-7-{(1R,2S,3R,5R)-5-Chloro-3-hydroxy-2-[4-(2-hydroxy-ethyl)-phenoxymethyl]-cyclopentyl}-hept-5-enoic acid], the Ki at hEP2 [2] was 1990 nM. The figures for the concentration for a half-maximal effect (EC50) on hEP2 [4] and on hEP4 [5] were more than 10000 nM and more than 10 µM, respectively.
